Patent US20210353751A1, “COMBINATION THERAPIES FOR TREATMENT OF INFLAMMATORY DISEASES” (The Regents of The University of California, priority 2018, published 2021)
Like-named read-outs stand apart in the source and are kept apart here.

Tests used:
Newly-diabetic NOD mice [1] = assay: Homotaurine monotherapy dose-finding study in newly-diabetic NOD mice; format: in vivo
Method: To determine whether homotaurine had therapeutic potential in NOD mice, the inventors performed a dose finding study with homotaurine dissolved in the drinking water at 0, 0.08, 0.25 or 0.75 mg/ml. […] Newly-diabetic NOD mice that were untreated rapidly progressed to severe hyperglycemia within 1 week. […] Thus, oral homotaurine monotherapy at an appropriate dose can quickly correct hyperglycemia and maintain normoglycemia for a short period, but most of the treated mice become hyperglycemic again.
A dose finding study was performed with homotaurine dissolved in the drinking water at 0, 0.08, 0.25 or 0.75 mg/ml to determine the therapeutic potential in NOD mice. […] Newly-diabetic NOD mice that were untreated rapidly progressed to severe hyperglycemia within 1 week. […] Thus, oral homotaurine monotherapy at an appropriate dose can quickly correct hyperglycemia but most of the treated mice become hyperglycemic again within a short period.
NOD mice (Taconic Farms, Germantown) were housed in a specific pathogen-free facility. Only female NOD mice were used.
Blood glucose levels were monitored 2-3 times weekly using a One Touch Ultrasensitive monitor and those with two consecutive daily blood glucose levels between 250-300 mg/dL were entered into the study. The mice were randomly assigned to groups that continually received water containing 0, 0.08, 0.25, or 0.75 mg/ml homotaurine, pH 7.2 through their drinking water. Each mouse consumed on average about 4-5 ml of water per day. Water bottles were changed every five days. Treated mice with two consecutive blood glucose readings below 250 mg/dL were considered to be in remission after which two consecutive blood glucose readings >250 mg/dL was considered disease relapse.

[2] = test system: newly severely hyperglycemic NOD mice; assay: Combined GABA-R agonist and low-dose anti-CD3 treatment in severely hyperglycemic NOD mice (remission/relapse); format: in vivo; conditions: homotaurine alone 0.25 mg/ml; severe hyperglycemia at entry
Method: The inventors hypothesized that combining GABA-Receptor activation with an immunosuppressant may allow effective disease reversal using lower dosages of the immunosuppressant and thereby reduce the possibility of side effects. The inventors chose to test anti-CD3 since it is a prototypic immunosuppressant that is in clinical use. In pilot studies, the inventors developed a low-dose anti-CD3 treatment protocol (35 μg anti-CD3 on three consecutive days), which reversed hyperglycemia in about a third of newly-diabetic NOD mice with severe hyperglycemia at entry into the study (blood glucose >350 mg/dL). The inventors then treated newly severely hyperglycemic NOD mice with low-dose anti-CD3 together with homotaurine (0.25 mg/ml), GABA (6 mg/ml), or plain water.
For these studies, the inventors initiated treatment when the NOD mice had blood glucose levels >350 mg/dL. […] Treated mice with two consecutive blood glucose readings below 250 mg/dL were considered to be in remission after which two consecutive blood glucose readings >250 mg/dL was considered to be disease relapse […]
Treatment was initiated when the NOD mice had blood glucose levels >350 mg/dL. […] Treated mice with two consecutive blood glucose readings below 250 mg/dL were considered to be in remission after which two consecutive blood glucose readings >250 mg/dL was considered to be disease relapse.

[3] = test system: PLN mononuclear cells of NOD mice; assay: Pancreatic lymph node (PLN) mononuclear cell analysis; format: in vivo; conditions: treated at 15-18 weeks in age, studied 3 weeks later; monotherapies relative to control, combination relative to monotherapies
From the text: This increase was significant for CD4^+CD25^+Foxp3^+ cells in comparison to homotaurine monotherapy. Thus, combined therapy also elevated the average frequencies of CD4^+ and CD8^+ Tregs within the target tissue/PLN of NOD mice

GABA-R = conditions: relative to GABA; cited from earlier work
[4] = after intravenous or intraperitoneal injection; cited from earlier work
[5] = test system: splenic Tregs of SJL mice; conditions: homotaurine monotherapy, EAE model; cited from earlier work
Newly-diabetic NOD mice [6] = assay: Anti-CD3 plus GABA in newly-diabetic NOD mice: glycemia and islet staining (insulin/glucagon) after three months; format: in vivo
Method: Newly-diabetic NOD mice (blood glucose 220-300 mg/dL on two consecutive days) were treated with anti-CD3 (non-Fc binding anti-CD3ε F(ab′)2 from BioExpress, 40 μg/day intravenously for 5 consecutive days) and immediately began one of the following additional treatments: • (1) control PBS IP; • (2) GABA (dissolved in PBS, 250 μg/kg, IP); • (3) control plain drinking water; or • (4a) drinking water containing 6 mg/ml GABA or (4b) drinking water containing 20 mg/ml GABA. Mice drink approximately 4 ml/day, so Group 4a consumed approximately 24 mg/day of GABA and Group 4b consumed approximately 80 mg/day of GABA.
Three months after beginning treatment, pancreata from the mice were removed and sections (4 μm) were stained with Alexa Fluor 647-anti-glucagon (shown in red in the Figures) and Alexa-488 conjugated with anti-insulin (shown in green in the Figures), followed by staining with 4′,6-diamidino-2-phenylindole (“DAPI”). Images were captured using a fluorescent microscope and at least 30 islets from each group of mice (n=4) were analyzed. Data are representative islet images or expressed as the mean±standard deviation (“SD”) of each group.

Newly-diabetic NOD mice [7] = conditions: oral GABA at 20 mg/ml, monotherapy; cited from earlier work
[8] = homotaurine 0.08 mg/ml in drinking water
[9] = homotaurine 0.25 mg/ml in drinking water

Compound | water or food consumption or body weights over the course of the study (Newly-diabetic NOD mice [1]; homotaurine 0, 0.08, 0.25 or 0.75 mg/ml in drinking water) | delay of disease progression (mean) (Newly-diabetic NOD mice [1]; [8]) [weeks] | effect on disease progression (Newly-diabetic NOD mice [1]; [8]) | restoration of normoglycemia (Newly-diabetic NOD mice [1]; [9]) | time at which most mice became hyperglycemic again (Newly-diabetic NOD mice [1]; [9]) [weeks] | effect on disease progression (Newly-diabetic NOD mice [1]; homotaurine 0.75 mg/ml in drinking water, on average less effective than 0.25 mg/ml) | mean remission period for all mice (Newly-diabetic NOD mice [1]; homotaurine monotherapy 0.25 mg/ml in drinking water) [weeks] | induction of remission [2] | frequency of CD4+CD25+Foxp3+ cells in the PLN [3] | frequency of CD8+CD122+PD-1+ cells in the PLN [3] | affinity for GABA-R, higher than GABA (GABA-R) [fold] | half-life in plasma compared with GABA [4] | frequency of splenic CD4+Foxp3+ Tregs [5] | frequency of splenic CD8+CD122+PD-1+ Tregs [5] | numbers of bihormonal cells versus groups treated with lower dosages of GABA (Newly-diabetic NOD mice [6]; GABA 20 mg/ml in drinking water with anti-CD3) | frequency of bihormonal glucagon+ insulin+ cells versus control groups (Newly-diabetic NOD mice [6]; all GABA-treated groups (250 μg/kg IP, 6 or 20 mg/ml in water), all with anti-CD3) | increase in the frequency of insulin+ cells per islet relative to control groups who received anti-CD3 alone (Newly-diabetic NOD mice [6]; highest GABA dose (20 mg/ml in drinking water) with anti-CD3) [fold] | half-life in plasma [4] [min] | restoration of normoglycemia (Newly-diabetic NOD mice [7]) | time at which mice became hyperglycemic again (Newly-diabetic NOD mice [7])
NCCCS(=O)(=O)O [homotaurine] | None of the mouse groups under study differed | 2.2 | delayed disease progression for a very brief period | restored normoglycemia in all mice | ≤ 6 | some delay in disease progression | 14 | unable to induce remission | significantly increased | significantly increased | > 3 | longer half-life than GABA | increased the frequency | increased the frequency |  |  |  |  |  | 
NCCCC(=O)O [GABA, γ-aminobutyric acid] |  |  |  |  |  |  |  |  |  |  |  |  |  |  | greater numbers of bihormonal cells | significantly increased | 26 | 20 | restored normoglycemia in all mice | generally within five weeks
